Converted amounts (≈) assume the structure as drawn. The source made the active and inactive calls. The calls are words filed in the database; no cut-off is given here.
Assays:
[1] = Percentage unbound in rat plasma; format: ADME, cell-free
[2] = Ratio of drug level in brain to blood in C57BL/6 mouse at 2 mg/kg, ip after 4 hrs; format: ADME, organism-based; design: dose 2 mg/kg, route intraperitoneal
Cytochrome P450 3A4 = Cytochrome P450 3A4 (Homo sapiens, UniProt P08684); experiment: Inhibition of CYP3A4; format: ADME
Cytochrome P450 1A2 = target: T1, Cytochrome P450 1A2 (Homo sapiens, UniProt P05177); experiment: Inhibition of CYP1A2; format: ADME
T1 sequence (P05177 whole entry): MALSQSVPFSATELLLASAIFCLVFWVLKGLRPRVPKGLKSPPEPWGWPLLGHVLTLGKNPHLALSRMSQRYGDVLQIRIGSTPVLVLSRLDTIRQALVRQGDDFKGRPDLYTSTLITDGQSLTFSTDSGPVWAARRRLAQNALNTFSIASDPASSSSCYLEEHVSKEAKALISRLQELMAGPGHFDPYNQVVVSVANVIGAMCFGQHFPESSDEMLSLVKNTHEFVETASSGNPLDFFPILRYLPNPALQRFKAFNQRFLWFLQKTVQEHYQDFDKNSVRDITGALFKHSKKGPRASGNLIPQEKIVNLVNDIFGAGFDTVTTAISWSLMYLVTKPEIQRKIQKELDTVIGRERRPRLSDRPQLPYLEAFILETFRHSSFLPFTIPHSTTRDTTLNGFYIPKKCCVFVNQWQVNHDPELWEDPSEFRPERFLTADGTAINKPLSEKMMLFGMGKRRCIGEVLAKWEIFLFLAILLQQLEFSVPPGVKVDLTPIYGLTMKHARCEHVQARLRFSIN

[3] = Solubility of the compound; format: physicochemical
[4] = Permeability of the compound; format: ADME; conditions: not told; read-out: permeability
[5] = target: Sphingosine 1-phosphate receptor 1 (Homo sapiens, UniProt P21453); experiment: Agonist activity against S1P1 receptor by cell based FRET assay; format: functional
[6] = Ratio of drug level in brain to blood in C57BL/6 mouse at 2 mg/kg, ip after 1 hr; format: ADME, organism-based; design: dose 2 mg/kg, route intraperitoneal
Cytochrome P450 2C9 = Cytochrome P450 2C9 (Homo sapiens, UniProt P11712); experiment: Inhibition of CYP2C9; format: ADME
Cytochrome P450 2C19 = Cytochrome P450 2C19 (Homo sapiens, UniProt P33261); experiment: Inhibition of CYP2C19; format: ADME
Cytochrome P450 2D6 = Cytochrome P450 2D6 (Homo sapiens, UniProt P10635); experiment: Inhibition of CYP2D6; format: ADME
[7] = target: Sphingosine 1-phosphate receptor 3 (Homo sapiens, UniProt Q99500); experiment: Agonist activity against S1P3 receptor by cell based FRET assay; format: functional
[8] = Oral bioavailability in mouse; format: ADME, organism-based; conditions: in vivo
[9] = AUC (0 to 24 hrs) in mouse; format: ADME, organism-based; design: time < 24 hr; conditions: plasma
Mus musculus [10] = experiment: Decrease in lymphocyte count in mouse acute lymphopenia model at 1 mg/kg, po after 4 hrs by flow cytometry relative to base line; format: functional; design: scale not given: the % may be the effect or the level left
[11] = Half life in mouse; format: ADME, organism-based; conditions: in vivo
Mus musculus [12] = experiment: Antiinflammatory activity in C57BL/6 mouse EAE model assessed as decrease in clinical symptoms at 1 mg/kg, po administered qd after 10 days post immunization; format: functional, organism-based; design: dose 1 mg/kg
[13] = Percentage unbound in human plasma; format: ADME, cell-free
Mus musculus [14] = experiment: Decrease in lymphocyte count in mouse acute lymphopenia model at 1 mg/kg, po after 24 hrs by flow cytometry relative to base line; format: functional; design: scale not given: the % may be the effect or the level left
Homo sapiens = organism: Homo sapiens; experiment: Selectivity ratio of EC50 for S1P3 receptor to EC50 for S1P1 receptor
[15] = Stability of the compound assessed as glutathione adduct formation; format: physicochemical
[16] = Half life in Sprague-Dawley rat at 1 mg/kg, iv and 2 mg/kg, po; format: ADME, organism-based; conditions: in vivo
[17] = Oral bioavailability in Sprague-Dawley rat at 2 mg/kg; format: ADME, organism-based; conditions: in vivo
Rattus norvegicus [18] = experiment: Antiinflammatory activity in rat assessed as decrease in lymphocyte count at 1 mg/kg, po qd for 7 days relative to base line; format: functional; design: scale not given: the % may be the effect or the level left
Rattus norvegicus [19] = organism: Rattus norvegicus; experiment: Decrease in lymphocyte count in rat after 60 hrs; format: functional, organism-based
Rattus norvegicus [20] = organism: Rattus norvegicus; experiment: Decrease in lymphocyte count in rat; format: functional, organism-based
Rattus norvegicus [21] = experiment: Antiinflammatory activity in rat assessed as decrease in lymphocyte count at 1 mg/kg, po qd for 7 days measured after 3 days of last post dose relative to control; format: functional; design: scale not given: the % may be the effect or the level left

Chain of Cytochrome P450 2D6 (P10635 whole entry): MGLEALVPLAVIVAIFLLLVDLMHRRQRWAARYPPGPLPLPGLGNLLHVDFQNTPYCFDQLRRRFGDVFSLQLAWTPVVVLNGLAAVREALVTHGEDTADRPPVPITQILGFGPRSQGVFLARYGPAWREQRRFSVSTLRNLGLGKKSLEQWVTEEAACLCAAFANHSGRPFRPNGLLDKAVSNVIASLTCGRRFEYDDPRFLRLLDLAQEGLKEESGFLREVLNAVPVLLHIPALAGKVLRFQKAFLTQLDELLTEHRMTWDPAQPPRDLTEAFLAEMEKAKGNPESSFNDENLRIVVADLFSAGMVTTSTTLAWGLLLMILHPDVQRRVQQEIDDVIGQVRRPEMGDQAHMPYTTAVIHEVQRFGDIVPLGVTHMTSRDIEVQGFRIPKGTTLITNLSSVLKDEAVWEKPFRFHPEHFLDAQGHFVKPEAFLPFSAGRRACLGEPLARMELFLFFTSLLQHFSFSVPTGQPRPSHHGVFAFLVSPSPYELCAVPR
Chain of Sphingosine 1-phosphate receptor 3 (Q99500 whole entry): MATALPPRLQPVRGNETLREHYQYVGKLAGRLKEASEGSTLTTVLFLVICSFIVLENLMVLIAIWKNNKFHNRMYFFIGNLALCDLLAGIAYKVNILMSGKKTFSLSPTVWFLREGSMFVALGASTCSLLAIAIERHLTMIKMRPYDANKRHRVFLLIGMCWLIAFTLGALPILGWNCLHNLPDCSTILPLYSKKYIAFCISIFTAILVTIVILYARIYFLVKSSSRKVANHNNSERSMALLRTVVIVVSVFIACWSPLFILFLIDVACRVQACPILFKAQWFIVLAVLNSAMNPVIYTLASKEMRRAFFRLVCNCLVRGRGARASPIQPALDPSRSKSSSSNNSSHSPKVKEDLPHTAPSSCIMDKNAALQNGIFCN
Chain of Cytochrome P450 2C9 (P11712 whole entry): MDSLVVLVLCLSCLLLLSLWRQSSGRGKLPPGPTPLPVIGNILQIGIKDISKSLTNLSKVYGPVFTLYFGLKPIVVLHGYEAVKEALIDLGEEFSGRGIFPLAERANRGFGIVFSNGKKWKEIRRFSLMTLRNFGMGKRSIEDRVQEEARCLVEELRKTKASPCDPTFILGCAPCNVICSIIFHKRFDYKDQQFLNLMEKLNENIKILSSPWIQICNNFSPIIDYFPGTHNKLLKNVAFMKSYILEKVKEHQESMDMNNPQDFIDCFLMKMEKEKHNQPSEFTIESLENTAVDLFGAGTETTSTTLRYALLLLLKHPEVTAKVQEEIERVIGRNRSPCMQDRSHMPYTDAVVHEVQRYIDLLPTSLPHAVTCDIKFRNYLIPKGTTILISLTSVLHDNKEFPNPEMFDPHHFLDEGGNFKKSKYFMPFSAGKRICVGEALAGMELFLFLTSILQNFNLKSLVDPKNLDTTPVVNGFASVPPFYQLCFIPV
Chain of Cytochrome P450 3A4 (P08684 whole entry): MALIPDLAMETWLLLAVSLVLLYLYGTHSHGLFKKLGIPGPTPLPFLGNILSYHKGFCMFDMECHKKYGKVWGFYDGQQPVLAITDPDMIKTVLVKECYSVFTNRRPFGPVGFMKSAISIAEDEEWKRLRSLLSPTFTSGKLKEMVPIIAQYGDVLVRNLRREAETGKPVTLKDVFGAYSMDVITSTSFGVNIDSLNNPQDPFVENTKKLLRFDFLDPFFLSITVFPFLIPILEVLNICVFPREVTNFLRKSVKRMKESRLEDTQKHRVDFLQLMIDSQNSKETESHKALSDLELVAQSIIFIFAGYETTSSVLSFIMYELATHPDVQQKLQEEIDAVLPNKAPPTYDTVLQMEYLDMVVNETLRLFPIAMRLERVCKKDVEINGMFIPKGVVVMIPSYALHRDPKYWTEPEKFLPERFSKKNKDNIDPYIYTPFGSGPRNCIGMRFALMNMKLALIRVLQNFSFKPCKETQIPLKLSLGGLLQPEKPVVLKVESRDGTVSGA
Chain of Sphingosine 1-phosphate receptor 1 (P21453 whole entry): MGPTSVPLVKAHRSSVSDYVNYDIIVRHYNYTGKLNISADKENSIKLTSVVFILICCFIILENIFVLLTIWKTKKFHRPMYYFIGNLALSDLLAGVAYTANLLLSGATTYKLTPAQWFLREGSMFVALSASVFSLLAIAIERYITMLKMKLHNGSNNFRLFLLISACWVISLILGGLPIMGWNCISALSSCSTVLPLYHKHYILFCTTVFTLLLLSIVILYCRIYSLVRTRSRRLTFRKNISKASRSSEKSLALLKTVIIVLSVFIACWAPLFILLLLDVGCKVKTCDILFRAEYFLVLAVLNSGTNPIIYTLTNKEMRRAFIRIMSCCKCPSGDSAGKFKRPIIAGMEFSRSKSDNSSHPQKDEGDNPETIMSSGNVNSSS
Chain of Cytochrome P450 2C19 (P33261 whole entry): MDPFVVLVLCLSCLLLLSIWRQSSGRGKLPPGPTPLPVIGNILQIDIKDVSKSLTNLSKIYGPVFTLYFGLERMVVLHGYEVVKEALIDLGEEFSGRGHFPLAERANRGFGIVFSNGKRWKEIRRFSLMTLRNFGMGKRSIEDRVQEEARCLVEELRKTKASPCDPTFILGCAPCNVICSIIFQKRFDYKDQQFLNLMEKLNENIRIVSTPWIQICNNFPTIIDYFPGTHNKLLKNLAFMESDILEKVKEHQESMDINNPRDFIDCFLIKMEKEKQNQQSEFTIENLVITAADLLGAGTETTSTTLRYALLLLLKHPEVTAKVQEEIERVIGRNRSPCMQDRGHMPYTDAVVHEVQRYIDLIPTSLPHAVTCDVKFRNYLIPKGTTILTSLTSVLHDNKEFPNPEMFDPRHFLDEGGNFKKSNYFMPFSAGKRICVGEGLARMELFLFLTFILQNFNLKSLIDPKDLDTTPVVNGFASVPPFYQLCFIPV

Row | SMILES | Kp at 4 h [2] | IC50 (Cytochrome P450 3A4) | IC50 (Cytochrome P450 1A2) | solubility [3] | Papp [4] | EC50 [5] | Kp at 1 h [6] | IC50 (Cytochrome P450 2C9) | IC50 (Cytochrome P450 2C19) | IC50 (Cytochrome P450 2D6) | EC50 [7] | bioavailability [8] | Activity (Mus musculus [10]) | half-life [11] | fraction unbound [13] | Activity (Mus musculus [14]) | Ratio EC50 (Homo sapiens) | Stability [15] | half-life [16] | bioavailability [17] | other results
1 | CCc1c(CCCC(=O)O)cccc1-c1noc(-c2ccc(OC(C)C)c(C#N)c2)n1 | 0.68 | > 10 µM | > 10 µM | 46 µg/mL (≈ 110 µM) | 34.5 ×10⁻⁶ cm/s | 0.0002 µM | 0.53 | > 10 µM | > 10 µM | > 10 µM | > 10 µM |  |  |  |  |  |  |  |  |  | fraction unbound [1]: 0.0004
2 | CCc1c(CCCC(=O)O)cccc1-c1nnc(-c2ccc(OC(C)C)c(C#N)c2)s1 | 0.19 | > 10 µM | > 10 µM | 256 µg/mL (≈ 588 µM) | 23 ×10⁻⁶ cm/s | 0.00126 µM | 0.21 | > 10 µM |  | > 10 µM | > 10 µM | 100% | 37.9% | 3.8 h | 0.0051 | 43.6% |  |  |  |  | AUC(0-t) at 24 h [9]: 5940 ng·h/mL; Activity (Mus musculus [12]): inactive
3 | CCc1c(CCN2CCC(C(=O)O)CC2)cccc1-c1nsc(-c2ccc(OC(C)C)c(Cl)c2)n1 | 1.48 | > 10 µM | > 10 µM |  |  | 0.000158 µM | 0.52 | > 10 µM | > 10 µM | > 10 µM | > 3.16 µM | 40% | 16% | 15.6 h | 0.0045 | 40% | > 1000 | Stable | 27.7 h | 70% | 
4 | CCc1c(CCN2CCC(C(=O)O)CC2)cccc1-c1nsc(-c2ccc(CC(C)C)c(C#N)c2)n1 | 0.65 | > 10 µM | > 10 µM |  |  | 0.000794 µM | 0.23 | > 10 µM | > 10 µM | > 10 µM | > 3.16 µM | 45% | 23% | 5.3 h | 0.0064 | 72% | > 1000 | Stable | 6.2 h | 50% | Activity (Rattus norvegicus [18]): 20%; Activity (Rattus norvegicus [19]): inactive; Activity (Rattus norvegicus [20]): Dose-dependent effect; IC50 (Rattus norvegicus [20]): 0.012 µg/mL (≈ 0.0239 µM); Activity (Rattus norvegicus [21]): 70%
